# Assay results: US5753704A, “Therapeutic compositions comprising unsaturated dioic acids or derivatives thereof” (Unichema Chemie B.V., priority 1992, dated 1998)
# Entries after “also recorded” stand apart in the source; their conditions may differ.
# Columns and labels:
# P. ACNES ATCC 25746 = assay: MIC's for long chain dioic acids against P. acnes (Table 4); format: cell-based, Propionibacterium acnes; settings: for MIC: P. acnes ATCC 25746
# Procedure: (§1) The Minimum Inhibitory Concentration (MIC) of each of various unsaturated dicarboxylic acid mixtures was determined in the presence and absence of 10% Intralipid (Kabi Pharmacia, Inc.) using the agar dilution technique for susceptibility of 32 strains of Propionibacterium acnes and of 32 strains of various genera of aerobic bacteria. The method was as set out below.
# (§2) A 5% stock solution for each agent was prepared by adding 10 grams of the dioic acid material to 200 milliliters of double strength Tryptic Soy Broth (TSB), (Baltimore Biological Laboratories). The pH of each solution was adjusted to 7.0±0.2 with sodium hydroxide.
# (§3) For each organic acid two sets of 200 ml capacity bottle/flasks were numbered 1 to 9. To each bottle was added 50 cc of double strength TSB. From the 5% stock solution, 50 cc of TSB were transferred to bottles #1 and #2. Serial transfers of 50 cc are made from bottle #2 through to bottle #8. Bottle #9 of each set contained only 50 cc of double strength TSB, without any dicarboxylic acid. To all 18 bottles were added 2 grams of granulated agar (BBL).
# (§4) All bottles were autoclaved at 121° C., 15 psi for 15 minutes and then held at 50° C. in a water bath.
# (§5) To one set of bottles #1-9 were added 50 cc of hot, sterile water. The bottles were swirled to mix the contents and 25 cc was poured into each of four petri dishes and allowed to solidify. To the second set of bottles were added 50 cc of Intralipid (pre-warmed to 50° C). The contents were then mixed and poured as above. Standard inocula of the test organisms were prepared by matching the bacterial suspension in 0.85% PSS (physiological saline solution) to a 0.5 McFarland Standard and diluting ten-fold to yield 10^7 CFU (colony forming units). The inocula were loaded into 32 wells of a steers replicator. The multi-prong inoculator delivers 0.001 to 0.002 cc resulting in a final inoculum of 10^4 CFU per spot.
# Plates were inoculated from the lowest to highest concentration (to reduce the effects of "carry-over" of the inoculum), and allowed to dry. The plates were then inverted and incubated at 35° C. for 24 hours. […]
# (§6) The agent-free control plates (#9) were examined at the end of the incubation for viability and signs of contamination. End-point MIC values were determined by observing the plate of lowest concentration of agent that inhibited visible micro-organism growth.
# A similar experiment was performed, using the same method, to compare the degree of inhibitory activity (for P. acnes) of azelaic acid, the C18:1 dioic acid (obtained from a substrate comprising oleic acid), a mixture of C18.1 fatty (mono-carboxylic) acid, the corresponding C18:1 and C18:2 dioic acids (obtained from a substrate comprising Linoleic acid), and the C16:1 dioic acid (obtained from a substrate comprising palmitoleic acid). The MICs for azelaic acid and the C18.1 dioic acid were essentially as before, confirming the previous results. The corresponding fatty acid had very little activity.
# In experiment 4, the degree of inhibition of the azelaic acid control, and therefore of the test samples also, was slightly less than that observed in previous experiments.
# thioredoxin reductase = settings: cited from earlier work
# Micrococcus luteus = assay: MIC, agar dilution technique (Table 3); format: cell-based
# Procedure: as §1, §2, §3, §4, §5
# (§7) Plates were inoculated from the lowest to highest concentration (to reduce the effects of "carry-over" of the inoculum), and allowed to dry. The plates were then inverted and incubated at 35° C. for 24 hours. Plates inoculated with Propionibacterium acnes strains were incubated under anaerobic conditions for seven days at 35° C.
# as §6
# [1] = system: Corynebacterium minutissium; assay: MIC, agar dilution technique (Table 3); format: cell-based
# Procedure: as §1, §2, §3, §4, §5, §7, §6
# [2] = system: Staphylococcus epidermidis; assay: MIC, agar dilution technique (Table 3); format: cell-based
# Procedure: as §1, §2, §3, §4, §5, §7, §6
# Staphylococcus aureus = assay: MIC, agar dilution technique (Table 3); format: cell-based
# Procedure: as §1, §2, §3, §4, §5, §7, §6
# [3] = system: Brevibacterium epidermidis; assay: MIC, agar dilution technique (Table 3); format: cell-based
# Procedure: as §1, §2, §3, §4, §5, §7, §6
# Micrococcus sedentarius = assay: MIC, agar dilution technique (Table 3); format: cell-based; settings: Micrococcus sedentarius ATCC 27574
# Procedure: as §1, §2, §3, §4, §5, §7, §6
# Pseudomonas aeruginosa = assay: MIC, agar dilution technique (Table 3); format: cell-based; settings: Pseudomonas aeruginosa ATCC 27853
# Procedure: as §1, §2, §3, §4, §5, §7, §6
# Propionibacterium acnes = assay: MIC, agar dilution technique (Table 3); format: cell-based
# Procedure: as §1, §2, §3, §4, §5, §7, §6
# Escherichia coli = assay: MIC, agar dilution technique (Table 3); format: cell-based; settings: Escherichia coli ATCC 25922
# Procedure: as §1, §2, §3, §4, §5, §7, §6
# Candida albicans = assay: MIC, agar dilution technique (Table 3); format: cell-based; settings: Candida albicans ATCC 18804
# [4] = system: 32 strains of Propionibacterium acnes and 32 strains of various genera of aerobic bacteria; assay: Antimicrobial activity, summary over the range of micro-organisms; format: cell-based
# Procedure: as §1, §2
# as §3, with “(BBL). […]” for “(BBL).”
# The agent-free control plates (#9) were examined at the end of the incubation for viability and signs of contamination. End-point MIC values were determined by observing the plate of lowest concentration of agent that inhibited visible micro-organism growth. […]
# [5] = Expt. 4, increased incubation period of 18 days
# [6] = Corynebacterium minutissium ATCC 23347
# [7] = Corynebacterium minutissium ATCC 23348
# [8] = Corynebacterium minutissium ATCC 23349
# [9] = Staphylococcus epidermidis ATCC 14490
# [10] = Staphylococcus epidermidis ATCC 31432
# [11] = Staphylococcus epidermidis ATCC 35894
# [12] = Staphylococcus aureus ATCC 25923
# [13] = Staphylococcus aureus ATCC 29213
# [14] = Staphylococcus aureus ATCC 35556
# [15] = Brevibacterium epidermidis ATCC 35514
# [16] = Brevibacterium epidermidis NCDO 2285
# [17] = Propionibacterium acnes ATCC 6919
# [18] = Propionibacterium acnes ATCC 29399
smiles,measurement,setting,value
"CCCCCCCC/C=C\CCCCCCCC(=O)O [C18:1 Fatty acid, oleic acid, reference compound]",inhibitory activity compared with azelaic acid,P. ACNES ATCC 25746; P. acnes,less active than azelaic acid
same,MIC,"P. ACNES ATCC 25746; Expt. 3, incubation 7 days",> 5%
"O=C(O)CCCCCCCC(=O)O [Azelaic acid, azelaic acid, reference compound]",MIC,"P. ACNES ATCC 25746; Expt. 1, incubation 7 days",5%
same,MIC,"P. ACNES ATCC 25746; Expt. 2, incubation 7 days",5%
same,MIC,"P. ACNES ATCC 25746; Expt. 3, incubation 7 days",5%
same,MIC,P. ACNES ATCC 25746; [5],> 5%
same,inhibition of thioredoxin reductase,thioredoxin reductase,inhibits thioredoxin reductase
same,MIC,Micrococcus luteus; Micrococcus luteus ATCC 9341,> 2.5%
same,MIC,Micrococcus luteus; Micrococcus luteus ATCC 15957,> 2.5%
same,MIC,Micrococcus luteus; Micrococcus luteus ATCC 27141,2.5%
same,MIC,[1]; [6],> 2.5%
same,MIC,[1]; [7],> 2.5%
same,MIC,[1]; [8],> 2.5%
same,MIC,[2]; [9],> 2.5%
same,MIC,[2]; [10],> 2.5%
same,MIC,[2]; [11],> 2.5%
same,MIC,Staphylococcus aureus; [12],2.5%
same,MIC,Staphylococcus aureus; [13],2.5%
same,MIC,Staphylococcus aureus; [14],2.5%
same,MIC,[3]; [15],> 2.5%
same,MIC,[3]; [16],> 2.5%
same,MIC,Micrococcus sedentarius,2.5%
same,MIC,Pseudomonas aeruginosa,> 2.5%
same,MIC,Propionibacterium acnes; [17],1.25%
same,MIC,Propionibacterium acnes; [18],1.25%
same,MIC,Escherichia coli,2.5%
same,MIC,Candida albicans,> 2.5%
O=C(O)CCCCCC=CCCCCCCCC(=O)O [C16:1 dioic acid ex Palmitoleic acid],MIC,P. ACNES ATCC 25746; [5],0.16%
O=C(O)CCCCCCC/C=C\CCCCCCCC(=O)O [C18:1 dioic acid ex Oleic acid],MIC,"P. ACNES ATCC 25746; Expt. 1, incubation 7 days",0.04%
same,MIC,"P. ACNES ATCC 25746; Expt. 2, incubation 7 days",0.04%
same,MIC,"P. ACNES ATCC 25746; Expt. 3, incubation 7 days",0.04%
same,MIC,P. ACNES ATCC 25746; [5],0.08%
same,activity relative to azelaic acid,"P. ACNES ATCC 25746; P. acnes, fold of the activity of azelaic acid",~100 ×
same,MIC,Micrococcus luteus; Micrococcus luteus ATCC 9341,0.15%
same,MIC,"Micrococcus luteus; Micrococcus luteus ATCC 9341, + ""Intralipid""",0.07%
same,MIC,Micrococcus luteus; Micrococcus luteus ATCC 15957,0.15%
same,MIC,"Micrococcus luteus; Micrococcus luteus ATCC 15957, + ""Intralipid""",0.07%
same,MIC,Micrococcus luteus; Micrococcus luteus ATCC 27141,0.15%
same,MIC,"Micrococcus luteus; Micrococcus luteus ATCC 27141, + ""Intralipid""",0.07%
same,MIC,[1]; [6],0.15%
same,MIC,"[1]; Corynebacterium minutissium ATCC 23347, + ""Intralipid""",0.15%
same,MIC,[1]; [7],0.15%
same,MIC,"[1]; Corynebacterium minutissium ATCC 23348, + ""Intralipid""",0.15%
same,MIC,[1]; [8],0.15%
same,MIC,"[1]; Corynebacterium minutissium ATCC 23349, + ""Intralipid""",0.15%
same,MIC,[2]; [9],0.31%
same,MIC,"[2]; Staphylococcus epidermidis ATCC 14490, + ""Intralipid""",0.31%
same,MIC,[2]; [10],0.31%
same,MIC,"[2]; Staphylococcus epidermidis ATCC 31432, + ""Intralipid""",0.31%
same,MIC,[2]; [11],0.31%
same,MIC,"[2]; Staphylococcus epidermidis ATCC 35894, + ""Intralipid""",0.31%
same,MIC,Staphylococcus aureus; [12],0.07%
same,MIC,"Staphylococcus aureus; Staphylococcus aureus ATCC 25923, + ""Intralipid""",0.15%
same,MIC,Staphylococcus aureus; [13],0.15%
same,MIC,"Staphylococcus aureus; Staphylococcus aureus ATCC 29213, + ""Intralipid""",0.31%
same,MIC,Staphylococcus aureus; [14],0.07%
same,MIC,"Staphylococcus aureus; Staphylococcus aureus ATCC 35556, + ""Intralipid""",0.31%
same,MIC,[3]; [15],0.15%
same,MIC,"[3]; Brevibacterium epidermidis ATCC 35514, + ""Intralipid""",0.15%
same,MIC,[3]; [16],0.15%
same,MIC,"[3]; Brevibacterium epidermidis NCDO 2285, + ""Intralipid""",0.15%
same,MIC,Micrococcus sedentarius,0.15%
same,MIC,"Micrococcus sedentarius; + ""Intralipid""",0.07%
same,MIC,Pseudomonas aeruginosa,> 2.5%
same,MIC,"Pseudomonas aeruginosa; + ""Intralipid""",> 2.5%
same,MIC,Propionibacterium acnes; [17],0.04%
same,MIC,"Propionibacterium acnes; Propionibacterium acnes ATCC 6919, + ""Intralipid""",0.02%
same,MIC,Propionibacterium acnes; [18],0.04%
same,MIC,"Propionibacterium acnes; Propionibacterium acnes ATCC 29399, + ""Intralipid""",0.02%
same,MIC,Escherichia coli,> 2.5%
same,MIC,"Escherichia coli; + ""Intralipid""",> 2.5%
same,"effect of the presence or absence of ""Intralipid"" on MIC","[4]; 10% Intralipid, listed as C18:1 mono-unsaturated compound",increased the MIC for taph. aureus; also recorded: decreased the MIC for P. acnes and M. luteus
same,anti-microbial activity compared with azelaic acid,[4]; Table 3 micro-organisms,many times greater than that for azelaic acid
same,MIC,Candida albicans,> 2.5%
same,MIC,"Candida albicans; + ""Intralipid""",> 2.5%
